In patent US9815862B2, “Polymorphs of LNnT” (Glycom A/S, priority 2012, dated 2017):

Legend:
[1] = Redissolution of the precipitate formed from aqueous LNnT solution; type: physicochemical; settings: white precipitate from aqueous solution stored at 2-8° C. or room temperature
Protocol: Amorphous spray-dried LNnT (6.0087 g, water content: 2.67%, purity: 99.2% by HPAEC) was dissolved in HPLC water (10.66 ml). Dissolution was reached by shaking. Two samples of 1 ml solution were stored at 2-8° C. (sample 1) and room temperature (sample 2), respectively, for 4 weeks. […] The precipitation was collected by filtration and dried at atmospheric pressure.

[2] = Storage of crystalline polymorph in an open vessel, checked by XRPD; type: physicochemical; settings: stored in an open vessel at ambient temperature and humidity for a week
Protocol: XRPD investigation of the collected crystals was conducted with a Philips PW 1830/PW 1050 instrument in transmission geometry, using CuKα radiation made monochromatic by means of a graphite monochromator. D-spacings were calculated from the 2Θ values, based on a wavelength of 1.54186 Å. As a general rule the 2Θ values have an error rate of […].

| SMILES | redissolution of the precipitated crystals [1] | change in XRPD pattern on storage (solid-state stability) [2] |
| --- | --- | --- |
| CC(=O)N[C@H]1[C@H](O[C@H]2[C@@H](O)[C@@H](CO)O[C@@H](O[C@H]3[C@H](O)[C@@H](O)C(O)O[C@@H]3CO)[C@@H]2O)O[C@H](CO)[C@@H](O[C@@H]2O[C@H](CO)[C@H](O)[C@H](O)[C@H]2O)[C@@H]1O (mixture of isomers) [LNnT polymorph IV, lacto-N-neotetraose] | can be redissolved only when ultrasonicated for 3 hours at 50 °C |  |
| CC(=O)N[C@H]1[C@H](O[C@H]2[C@@H](O)[C@@H](CO)O[C@@H](O[C@H]3[C@H](O)[C@@H](O)C(O)O[C@@H]3CO)[C@@H]2O)O[C@H](CO)[C@@H](O[C@@H]2O[C@H](CO)[C@H](O)[C@H](O)[C@H]2O)[C@@H]1O (mixture of isomers) [LNnT polymorph V, lacto-N-neotetraose] |  | no substantial change in its XRPD pattern can be observed |
